Holding throughout (format): biochemical
One experiment addresses T1, JAK3 (Homo sapiens, UniProt P52333).
T1 construct: made in house; host or cells: SF9 insect cells (baculovirus)
Briefly: JAK3 inhibition (Table 4). As to conditions: read-out: JAK3 Ki.

In the next experiment the target is T2, TYK2 (Homo sapiens, UniProt P29597).
T2 construct: made in house; host or cells: SF9 insect cells (baculovirus)
T2 sequence (P29597 873-1187): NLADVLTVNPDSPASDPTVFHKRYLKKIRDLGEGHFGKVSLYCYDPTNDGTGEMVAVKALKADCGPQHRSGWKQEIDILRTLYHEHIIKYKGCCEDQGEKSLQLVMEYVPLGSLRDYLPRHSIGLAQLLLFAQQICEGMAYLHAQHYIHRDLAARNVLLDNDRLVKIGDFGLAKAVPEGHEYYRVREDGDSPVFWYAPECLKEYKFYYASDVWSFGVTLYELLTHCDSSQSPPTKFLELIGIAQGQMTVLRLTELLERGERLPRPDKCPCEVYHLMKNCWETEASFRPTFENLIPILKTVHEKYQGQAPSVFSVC
Briefly: TYK2 inhibition (Table 4).

A further experiment concerns the target T3, JAK2 (Homo sapiens, UniProt O60674).
T3 construct: made in house; host or cells: SF9 insect cells (baculovirus)
Briefly: JAK2 inhibition (Table 4). As to conditions: read-out: JAK2 Ki.

In another experiment the target is T4, JAK1 (Homo sapiens, UniProt P23458).
T4 construct: made in house; host or cells: SF9 insect cells (baculovirus)
T4 sequence (P23458 852-1154): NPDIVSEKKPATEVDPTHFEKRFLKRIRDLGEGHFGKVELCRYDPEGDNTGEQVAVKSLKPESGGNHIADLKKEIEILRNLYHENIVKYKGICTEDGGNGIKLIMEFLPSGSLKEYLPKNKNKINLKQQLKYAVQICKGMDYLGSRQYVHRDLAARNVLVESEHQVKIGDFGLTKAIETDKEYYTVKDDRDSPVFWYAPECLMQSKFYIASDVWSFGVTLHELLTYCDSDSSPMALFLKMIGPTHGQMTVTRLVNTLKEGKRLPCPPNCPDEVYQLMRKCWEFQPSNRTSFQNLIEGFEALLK
Briefly: JAK1 inhibition (Table 4). As to conditions: read-out: JAK1 Ki.

T1 sequence (P52333 783-1124): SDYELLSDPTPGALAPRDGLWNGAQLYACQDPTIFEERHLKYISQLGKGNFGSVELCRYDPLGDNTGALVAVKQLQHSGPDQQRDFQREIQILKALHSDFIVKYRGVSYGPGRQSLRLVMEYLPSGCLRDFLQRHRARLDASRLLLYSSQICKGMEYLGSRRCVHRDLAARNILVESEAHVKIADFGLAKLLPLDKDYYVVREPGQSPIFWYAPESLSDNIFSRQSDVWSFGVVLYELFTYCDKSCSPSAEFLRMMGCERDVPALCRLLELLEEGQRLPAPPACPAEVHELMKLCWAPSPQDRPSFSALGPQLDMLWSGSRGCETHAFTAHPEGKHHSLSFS
T3 sequence (O60674 812-1132): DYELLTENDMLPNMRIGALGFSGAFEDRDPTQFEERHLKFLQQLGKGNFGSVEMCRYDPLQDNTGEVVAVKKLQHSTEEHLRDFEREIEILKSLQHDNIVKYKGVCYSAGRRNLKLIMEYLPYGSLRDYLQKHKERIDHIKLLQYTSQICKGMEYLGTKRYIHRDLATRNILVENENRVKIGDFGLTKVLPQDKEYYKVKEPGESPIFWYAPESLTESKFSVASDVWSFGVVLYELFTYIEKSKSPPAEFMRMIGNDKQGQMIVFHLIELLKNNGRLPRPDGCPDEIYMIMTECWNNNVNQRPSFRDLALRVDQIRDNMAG

For orientation: Ki means the dissociation constant of the complex between target and ligand, obtained from inhibition or displacement. `CC(C)C(=O)N1CC(c2nc3cnc4[nH]ccc4c3n2C2CCN(CCC#N)CC2)C1` [Example 389, 3-{4-[2-(1-Isobutyryl-azetidin-3-yl)-6H-1,3,5,6-tetraaza-as-indacen-1-yl]-piperidin-1-yl}-propionitrile]: the Ki was 0.0483 µM on JAK3, 0.181 µM on TYK2, 0.0343 µM on JAK2 and 0.0111 µM at JAK1.
Consider `Cc1nccn1Cc1nc2cnc3[nH]ccc3c2n1C1CCN(CCC#N)CC1` [Example 402, 3-{4-[2-(2-Methyl-imidazol-1-ylmethyl)-6H-1,3,5,6-tetraaza-as-indacen-1-yl]-piperidin-1-yl}-propionitrile], for which the Ki was 0.0668 µM on JAK3, 0.0357 µM on TYK2, 0.0088 µM on JAK2 and 0.0054 µM on JAK1.
For `N#CCCN1CCC(n2c(Cc3cccnc3)nc3cnc4[nH]ccc4c32)CC1` [Example 403, 3-[4-(2-Pyridin-3-ylmethyl-6H-1,3,5,6-tetraaza-as-indacen-1-yl)-piperidin-1-yl]-propionitrile], in that order: 0.0242 µM, 0.102 µM, 0.0192 µM and 0.0103 µM.
For `N#CCCN1CCC(n2c(Cc3cccc(C#N)c3)nc3cnc4[nH]ccc4c32)CC1` [Example 405, 3-{1-[1-(2-Cyano-ethyl)-piperidin-4-yl]-1,6-dihydro-1,3,5,6-tetraaza-as-indacen-2-ylmethyl}-benzonitrile], in that order: 0.524 µM, 0.445 µM, 0.252 µM and 0.0306 µM.
For `N#CCCN1CCC(n2c(Cc3ccc(C(N)=O)cc3)nc3cnc4[nH]ccc4c32)CC1` [Example 406, 4-{1-[1-(2-Cyano-ethyl)-piperidin-4-yl]-1,6-dihydro-1,3,5,6-tetraaza-as-indacen-2-ylmethyl}-benzamide], the inhibitory constant (Ki) at JAK3 was 0.614 µM; at TYK2 it was 0.648 µM; on JAK2, 0.204 µM; on JAK1, 0.0678 µM.
On to `CC(C)COCc1nc2cnc3[nH]ccc3c2n1C1CCN(CCC#N)CC1` [Example 407, 3-[4-(2-Isobutoxymethyl-6H-1,3,5,6-tetraaza-as-indacen-1-yl)-piperidin-1-yl]-propionitrile], for which the inhibition constant (Ki) on JAK3 was 0.17 µM; on TYK2 it was 0.607 µM; at JAK2 it was 0.122 µM; at JAK1 it was 0.0812 µM.
With `N#CCCN1CCC(n2c(CCC3CC3)nc3cnc4[nH]ccc4c32)CC1` [Example 408, 3-{4-[2-(2-Cyclopropyl-ethyl)-6H-1,3,5,6-tetraaza-as-indacen-1-yl]-piperidin-1-yl}-propionitrile], the inhibitory constant (Ki) on JAK3 came to 0.0524 µM; at TYK2, 0.255 µM; on JAK2, 0.0435 µM; at JAK1 it was 0.0158 µM.
Turning to `Cc1ccnn1CCc1nc2cnc3[nH]ccc3c2n1C1CCN(CCC#N)CC1` [Example 410, 3-(4-{2-[2-(5-Methyl-pyrazol-1-yl)-ethyl]-6H-1,3,5,6-tetraaza-as-indacen-1-yl}-piperidin-1-yl)-propionitrile], the Ki on JAK3 was found to be 0.244 µM; at TYK2, 0.315 µM; at JAK2 it was 0.0816 µM; on JAK1, 0.0249 µM.
For `Cn1cc(CCc2nc3cnc4[nH]ccc4c3n2C2CCN(CCC#N)CC2)cn1` [Example 412, 3-(4-{2-[2-(1-Methyl-1H-pyrazol-4-yl)-ethyl]-6H-1,3,5,6-tetraaza-as-indacen-1-yl}-piperidin-1-yl)-propionitrile], in that order: 0.125 µM, 0.545 µM, 0.0787 µM and 0.0216 µM.
Turning to `Cc1cnn(CCc2nc3cnc4[nH]ccc4c3n2C2CCN(CCC#N)CC2)c1` [Example 413, 3-(4-{2-[2-(4-Methyl-pyrazol-1-yl)-ethyl]-6H-1,3,5,6-tetraaza-as-indacen-1-yl}-piperidin-1-yl)-propionitrile], the Ki at JAK3 was found to be 0.224 µM; on TYK2 it was 0.181 µM; at JAK2, 0.0598 µM; on JAK1 it was 0.0211 µM.
In the same order, the values of `N#CCCN1CCC(n2c(CCn3cccn3)nc3cnc4[nH]ccc4c32)CC1` [Example 414, 3-{4-[2-(2-Pyrazol-1-yl-ethyl)-6H-1,3,5,6-tetraaza-as-indacen-1-yl]-piperidin-1-yl}-propionitrile] are 0.155 µM, 0.137 µM, 0.0557 µM and 0.0176 µM.
For `Cc1nc2cnc3[nH]ccc3c2n1[C@H]1CC[C@@H](C(=O)O)CC1` [Example 420, 4-(2-Methyl-6H-1,3,5,6-tetraaza-as-indacen-1-yl)-cyclohexanecarboxylic acid], in that order: 0.0391 µM, 0.0286 µM, 0.0806 µM and 0.0662 µM.
As for `Cc1nc2cnc3[nH]ccc3c2n1[C@H](C)CO` [Example 421, (R)-2-(2-Methyl-6H-1,3,5,6-tetraaza-as-indacen-1-yl)-propan-1-ol], the inhibition constant (Ki) at JAK3 is 0.433 µM; at TYK2, 2.34 µM; at JAK2 it was 0.747 µM; on JAK1, 0.251 µM.
With `Cc1nc2cnc3[nH]ccc3c2n1[C@@H](C)CO` [Example 422, (S)-2-(2-Methyl-6H-1,3,5,6-tetraaza-as-indacen-1-yl)-propan-1-ol], the Ki was determined as 0.31 µM at JAK3, 1.23 µM at TYK2, 0.378 µM on JAK2 and 0.141 µM on JAK1.
Turning to `CCCC1(n2c(C)nc3cnc4[nH]ccc4c32)CC1` [Example 423, 2-Methyl-1-(1-propyl-cyclopropyl)-1,6-dihydro-1,3,5,6-tetraaza-as-indacene], the inhibition constant Ki at JAK3 was 0.00967 µM; at TYK2 it was 0.112 µM; on JAK2, 0.0141 µM; at JAK1, 0.00988 µM.
For `COC[C@H](C)n1c(C)nc2cnc3[nH]ccc3c21` [Example 424, 1-((S)-2-Methoxy-1-methyl-ethyl)-2-methyl-1,6-dihydro-1,3,5,6-tetraaza-as-indacene], in that order: 0.0329 µM, 0.317 µM, 0.0633 µM and 0.0463 µM.
In the same order, the values of `Cc1nc2cnc3[nH]ccc3c2n1C1CC1` [Example 425, 1-Cyclopropyl-2-methyl-1,6-dihydro-1,3,5,6-tetraaza-as-indacene] are 0.177 µM, 0.399 µM, 0.0978 µM and 0.0834 µM.
For `O=C(Cc1ccccc1)N1CC[C@@H](n2cnc3cnc4[nH]ccc4c32)C1` [Example 430, 2-Phenyl-1-[(R)-3-(6H-1,3,5,6-tetraaza-as-indacen-1-yl)-pyrrolidin-1-yl]-ethanone], in that order: 1.24 µM, 0.507 µM, 0.162 µM and 0.0589 µM.
On to `N#Cc1ccc(CC(=O)N2CC[C@@H](n3cnc4cnc5[nH]ccc5c43)C2)cc1` [Example 431, 4-{2-Oxo-2-[(R)-3-(6H-1,3,5,6-tetraaza-as-indacen-1-yl)-pyrrolidin-1-yl]-ethyl}-benzonitrile], for which the inhibitory constant (Ki) was determined as 3.52 µM at JAK3, 1.15 µM at TYK2, 0.175 µM at JAK2 and 0.0371 µM on JAK1.
For `O=S(=O)(c1ccccc1)N1CC[C@@H](n2cnc3cnc4[nH]ccc4c32)C1` [Example 432, 1-((R)-1-Benzenesulfonyl-pyrrolidin-3-yl)-1,6-dihydro-1,3,5,6-tetraaza-as-indacene], in that order: 1.28 µM, 0.0732 µM, 0.0179 µM and 0.0197 µM.
In the same order, the values of `N#Cc1cccc(S(=O)(=O)N2CC[C@@H](n3cnc4cnc5[nH]ccc5c43)C2)c1` [Example 434, 3-[(R)-3-(6H-1,3,5,6-Tetraaza-as-indacen-1-yl)-pyrrolidine-1-sulfonyl]-benzonitrile] are 1.2 µM, 0.0325 µM, 0.00622 µM and 0.00567 µM.
With `O=S(=O)(Cc1ccccc1)N1CC[C@@H](n2cnc3cnc4[nH]ccc4c32)C1` [Example 435, 1-((R)-1-Phenylmethanesulfonyl-pyrrolidin-3-yl)-1,6-dihydro-1,3,5,6-tetraaza-as-indacene], the inhibition constant (Ki) at JAK3 turned out to be 0.226 µM; at TYK2, 0.265 µM; on JAK2, 0.0281 µM; at JAK1 it was 0.0321 µM.
In the same order, the values of `N#Cc1cccc(CN2CC[C@@H](n3cnc4cnc5[nH]ccc5c43)C2)c1` [Example 436, 3-[(R)-3-(6H-1,3,5,6-Tetraaza-as-indacen-1-yl)-pyrrolidin-1-ylmethyl]-benzonitrile] are 0.21 µM, 0.0977 µM, 0.0125 µM and 0.0089 µM.
As to `O=C(CO)N1CCC(n2cnc3cnc4[nH]ccc4c32)CC1` [Example 437, 2-Hydroxy-1-[4-(6H-1,3,5,6-tetraaza-as-indacen-1-yl)-piperidin-1-yl]-ethanone], the Ki on JAK3 came to 0.153 µM; on TYK2, 0.0556 µM; at JAK2, 0.0112 µM; at JAK1 it was 0.00387 µM.
In the same order, the values of `CN(C)CCC(=O)N1CCC(n2cnc3cnc4[nH]ccc4c32)CC1` [Example 439, 3-Dimethylamino-1-[4-(6H-1,3,5,6-tetraaza-as-indacen-1-yl)-piperidin-1-yl]-propan-1-one] are 1.11 µM, 1.98 µM, 0.437 µM and 0.0842 µM.
